Paper PMC7932521, “2-aminobenzimidazoles for leishmaniasis: From initial hit discovery to in vivo profiling” (PLoS Neglected Tropical Diseases, 2021)
Like-named read-outs stand apart in the source and are kept apart here.

Key:
[1] = test system: Leishmania infantum MHOM/MA(BE)/67/ITMAP263 amastigotes; assay: L. infantum intracellular amastigote assay in PMM; type: cell-based; conditions: for IC50: Leishmania infantum, read-out: L. infantum IC50; for SI: selectivity index (CC50 / IC50): CC50 / L. infantum IC50
Description: (§1) Leishmania infantum MHOM/MA(BE)/67/ITMAP263 amastigotes were collected from the spleen of infected donor Golden hamsters. Primary peritoneal mouse macrophages (PMM) were used as host cells for in vitro assays. PMM were collected from Swiss mice after 2 days of peritoneal stimulation with a 2% suspension of potato starch and maintained in RPMI-1640 medium supplemented with 200 mM L-glutamine, antibiotics and 5% FCS at 37°C and 5% CO2. Promastigotes of L. infantum chagasi (luciferase) (MHOM/BR/2005/NLC) obtained as described in Reimão et al.,[27] were grown in M199 medium supplemented with 10% FCS, 0.25% hemin, 32 μg/ml hygromycin and 2% sterile human urine at 25°C and 5% CO2.
(§2) Stock solutions of the compounds at 20 mM were prepared in 100% DMSO. Next, the compounds were serially pre-diluted in DMSO followed by a further dilution in demineralized water to assure a final in-test DMSO concentration below 1%. The compounds were tested at 4-fold dilutions starting at 64 μM.
For the antileishmania in vitro assays, 3×10^4 PMM/well were seeded in 96-well plates. After 24h, 5×10^5 amastigotes/well were added and incubated for 2h at 37°C. Next, the compounds in 4-fold serial dilutions were added and the plates were further incubated for 5 days (37°C, 5% CO2). Parasite burdens were assessed using an inverted microscope after Giemsa staining. The results were expressed as percent reduction in parasite burdens compared to negative control wells (100% growth) and IC50 values were determined. Values represent the geometric mean of at least two independent experiments. Miltefosine was used as the positive control in all plates.

[2] = Parallel artificial membrane permeability assay (PAMPA); type: in vitro ADME; conditions: PAMPA, S1 Data; read-out: PAMPA Pe
Description: To determine the passive permeability of the compounds, a 96-well plate containing membranes pre-coated with lipids (Corning Gentest # 353015) was used. The solutions of the compounds were prepared by diluting the stock solutions (10mM) in phosphate buffered saline (PBS) pH 6.5 at a final concentration of 10μM. The solutions diluted in PBS pH 6.5 were then added to the donor portion of the plate (300 μl/well), while PBS pH 7.4 (200 μl/well) was added to the acceptor portion. The two portions of the plate were then coupled, and the system was incubated for 5 h at 37°C. At the end of the incubation, samples were collected from the donor and acceptor plates, and then added to plates containing quench solution (10% water and 90% methanol: acetonitrile (50:50) + 50 nM tolbutamide). The final concentrations of compounds in the donor, acceptor, and initial solution (T0) wells were analyzed using LC-MS/MS. The results were used to calculate an effective permeability (Pe) value. The PAMPA assay was performed in triplicate (n = 3).

[3] = Mouse liver microsomal stability; type: in vitro ADME; conditions: for microsomal CLint at 0.5 μM: CD1, mouse, liver microsomes
Description: The metabolic stability of the compounds was evaluated in human (pool of 200 donors, XenoTech) and mouse liver microsomes (CD1 mouse, GIBCO). Test compounds were prepared at a concentration of 0.5 μM and incubated with 0.25 mg/mL liver microsomes at pH 7.4 and 37°C. The reaction was started by addition of NADPH at […]. Samples were taken at 0, 5, 10, 15, 20 and 30 minutes. The reaction was stopped by the addition of acetonitrile:methanol (1:1) containing an internal standard (tolbutamide at 50 nM). Compounds were quantified by liquid chromatography triple quadrupole mass spectrometry (LC-MS/MS). Peak area ratios (analyte/internal standard) were converted to % remaining using the area ratio at time 0 as 100%. Half-life (t1/2 = ln(2)/k) in minutes and intrinsic clearance (Clint = k x 1000/(0.25)) in μL/min/mg were calculated using a non-linear regression from % remaining versus incubation time. From this plot, the slope (k) was determined. The analysis conditions were: analytical column (Gemini C18, […], Phenomenex), electrospray ionization source (ESI) in positive and negative mode, mobile phase A (water + 0.1% formic acid) and B (acetonitrile + 0.1% formic acid), flow rate of 0.7 mL/min.

[4] = test system: PMM (Primary Mouse Macrophages); assay: Cytotoxicity on primary peritoneal mouse macrophages; type: cell-based; conditions: Mus musculus, Macrophage, read-out: PMM IC50
Description: as §1, §2

MRC-5 cytotoxicity = type: cell-based; conditions: human, MRC-5 cells; S1 Data
[5] = Experimental distribution coefficient (eLogD); type: physicochemical; conditions: pH 7.4
Description: To determine the lipophilicity of the compounds, a methodology based on the retention time of molecules in reverse stationary phase (Ascentis RP-Amide HPLC column) was used. The chromatogram was obtained using LC-MS/MS. Test compounds were prepared at 1.0 μg/mL by adding the stock solution at (1:1) mobile phases A:B + internal standard at 200nM (A: 5% methanol in 10mM ammonium acetate pH 7.4, B: 100% methanol), DMSO concentration must be lower than 2%. […] The retention time (in minutes) of each of the eight standards was plotted against their LogD values. The resulting equation for the calibration curve (y = mx + b) was used to calculate the LogD values for the test compounds.

[6] = 120 h, intracellular amastigotes in PMM, 5 days
[7] = pH 7.4, S1 Data, read-out: MLM CLint
[8] = reverse stationary phase HPLC column (Ascentis RP-Amide), S1 Data
[9] = pH 7.4, mouse liver microsome intrinsic clearance, read-out: MLM Clint

Structure (SMILES): O=C(Cc1ccc(F)cc1)Nc1nc2cc(F)ccc2n1CCCN1CCOCC1 [Compound 27, Fc1cc(nc(NC(=O)Cc2ccc(F)cc2)n3CCCN4CCOCC4)c3cc1]
- IC50 [1, 6]: 24 µM
- IC50 ([1]; S1 Data): 23.5 µM
- Papp at 5 h, 10 μM [2]: 4.74 ×10⁻⁶ cm/s
- microsomal CLint at 0.5 μM [3, 7]: 335 µL/min/mg
- IC50 [4]: 45.2 µM
- CC50 (MRC-5 cytotoxicity): 60.9 µM
- chromatographic logD [5, 8]: 3.42

Structure (SMILES): Cn1nccc1C(=O)Nc1nc2ccc(C#N)cc2n1C1CCOCC1 [Compound 32, O=C(c1ccnn1C)Nc2nc(ccc(C#N)c3)c3n2C4CCOCC4]
- SI: selectivity index (CC50 / IC50) [1]: 1
- IC50 ([1]; S1 Data): > 64 µM
- Papp at 5 h, 10 μM [2]: 11 ×10⁻⁶ cm/s
- microsomal CLint at 0.5 μM [3, 7]: < 23 µL/min/mg
- microsomal CLint at 0.5 μM [3, 9]: 23 µL/min/mg
- IC50 [4]: > 64 µM
- CC50 (MRC-5 cytotoxicity): > 64 µM
- chromatographic logD [5, 8]: 2.32
- chromatographic logD ([5]; reverse-phase HPLC retention (Ascentis RP-Amide column), experimental): 2.3

Structure (SMILES): Cn1nccc1C(=O)Nc1nc2cccnc2n1CC(F)(F)F [Compound 53, O=C(c1ccnn1C)Nc2nc(cccn3)c3n2CC(F)(F)F]
- SI: selectivity index (CC50 / IC50) [1]: 4
- IC50 [1, 6]: 8.2 µM
- IC50 ([1]; S1 Data): 8.18 µM
- Papp at 5 h, 10 μM [2]: 24.3 ×10⁻⁶ cm/s
- microsomal CLint at 0.5 μM [3, 7]: 118 µL/min/mg
- MLM CLint ([3]; mouse liver microsome intrinsic clearance): 119 µL/min/mg
- IC50 [4]: 32 µM
- CC50 (MRC-5 cytotoxicity): 6.83 µM

Structure (SMILES): Cn1nccc1C(=O)Nc1nc2ccc(C#N)cc2n1CC(F)F [Compound 47, FC(F)Cn1c(cc(C#N)cc2)c2nc1NC(c3ccnn3C)=O]
- SI: selectivity index (CC50 / IC50) [1]: 3
- IC50 [1, 6]: 8.8 µM
- IC50 ([1]; S1 Data): 8.78 µM
- Papp at 5 h, 10 μM [2]: 10.6 ×10⁻⁶ cm/s
- MLM CLint ([3]; S1 Data): 383 µL/min/mg
- IC50 [4]: 22.6 µM
- CC50 (MRC-5 cytotoxicity): 12.3 µM

Structure (SMILES): CCCn1c(NC(=O)Cc2ccc(F)cc2)nc2ccccc21 [Compound 2, CCCn1c(nc2c1cccc2)NC(Cc3ccc(cc3)F)=O]
- SI: selectivity index (CC50 / IC50) [1]: 2
- IC50 [1, 6]: 15 µM
- IC50 ([1]; S1 Data): 14.8 µM
- Papp at 5 h, 10 μM [2]: 6.63 ×10⁻⁶ cm/s
- microsomal CLint at 0.5 μM [3, 7]: 2760 µL/min/mg
- IC50 [4]: 32 µM
- CC50 (MRC-5 cytotoxicity): > 64 µM
- eLogD ([5]; experimental): 4.0
- chromatographic logD [5, 8]: 3.97

Structure (SMILES): O=C(Cc1ccc(F)cc1)Nc1nc2cc(F)ccc2n1C1CCOCC1 [Compound 28, Fc1cc(nc(NC(=O)Cc2ccc(F)cc2)n3C4CCOCC4)c3cc1]
- IC50 [1, 6]: 13 µM
- IC50 ([1]; S1 Data): 12.7 µM
- Papp at 5 h, 10 μM [2]: 19.6 ×10⁻⁶ cm/s
- microsomal CLint at 0.5 μM [3, 7]: 133 µL/min/mg
- IC50 [4]: > 64 µM
- CC50 (MRC-5 cytotoxicity): > 64 µM
- chromatographic logD [5, 8]: 3.32

Structure (SMILES): CCn1c(NC(=O)Cc2ccc(F)cc2)nc2ccc(F)cc21 [Compound 16, Fc1cc2c(nc(NC(=O)Cc3ccc(F)cc3)n2CC)cc1]
- IC50 [1, 6]: 4.4 µM
- IC50 ([1]; S1 Data): 4.35 µM
- Papp at 5 h, 10 μM [2]: 19.4 ×10⁻⁶ cm/s
- microsomal CLint at 0.5 μM [3, 7]: 538 µL/min/mg
- IC50 [4]: > 64 µM
- CC50 (MRC-5 cytotoxicity): > 64 µM
- chromatographic logD [5, 8]: 3.59

Structure (SMILES): O=C(Cc1ccc(F)cc1)Nc1nc2ccc(F)cc2n1CC1CC1 [Compound 21, Fc1cc2c(nc(NC(=O)Cc3ccc(F)cc3)n2CC4CC4)cc1]
- IC50 [1, 6]: 8.1 µM
- IC50 ([1]; S1 Data): 8.06 µM
- Papp at 5 h, 10 μM [2]: 19.4 ×10⁻⁶ cm/s
- microsomal CLint at 0.5 μM [3, 7]: 887 µL/min/mg
- IC50 [4]: > 64 µM
- CC50 (MRC-5 cytotoxicity): 17.4 µM
- chromatographic logD [5, 8]: 4.12

Structure (SMILES): Cn1nccc1C(=O)Nc1nc2ccc(C#N)cc2n1CCF [Compound 48, FCCn1c(cc(C#N)cc2)c2nc1NC(c3ccnn3C)=O]
- SI: selectivity index (CC50 / IC50) [1]: 1
- IC50 [1, 6]: 28 µM
- IC50 ([1]; S1 Data): 27.9 µM
- Papp at 5 h, 10 μM [2]: 63.7 ×10⁻⁶ cm/s
- MLM CLint ([3]; S1 Data): 154 µL/min/mg
- IC50 [4]: 32 µM
- CC50 (MRC-5 cytotoxicity): 13.7 µM

Structure (SMILES): CC(C)(C)Cn1c(NC(=O)c2cccnc2)nc2ccc(C#N)cc21 [Compound 41, O=C(Nc1n(CC(C)(C)C)c(c2n1)cc(C#N)cc2)c3cccnc3]
- SI: selectivity index (CC50 / IC50) [1]: 2
- IC50 [1, 6]: 8.6 µM
- IC50 ([1]; S1 Data): 8.57 µM
- Papp at 5 h, 10 μM [2]: 18 ×10⁻⁶ cm/s
- MLM CLint ([3]; S1 Data): 87 µL/min/mg
- IC50 [4]: 16 µM
- CC50 (MRC-5 cytotoxicity): > 64 µM
- chromatographic logD [5, 8]: 3.9

Structure (SMILES): CCCn1c(NC(=O)Cc2ccc(F)cc2)nc2ccc(C#N)cc21 [Compound 8, n1c(c2n(CCC)c1NC(=O)Cc3ccc(F)cc3)ccc(C#N)c2]
- SI: selectivity index (CC50 / IC50) [1]: 1
- IC50 [1, 6]: 46 µM
- IC50 ([1]; S1 Data): 45.6 µM
- Papp at 5 h, 10 μM [2]: 30.7 ×10⁻⁶ cm/s
- microsomal CLint at 0.5 μM [3, 7]: 226 µL/min/mg
- microsomal CLint at 0.5 μM [3, 9]: 225 µL/min/mg
- IC50 [4]: 45.2 µM
- CC50 (MRC-5 cytotoxicity): > 64 µM
- eLogD ([5]; experimental): 3.6
- chromatographic logD [5, 8]: 3.6

Structure (SMILES): Cn1nccc1C(=O)Nc1nc2ccc(C#N)cc2n1CC(C)(C)O [Compound 49, O=C(c1ccnn1C)Nc2nc(ccc(C#N)c3)c3n2CC(O)(C)C]
- SI: selectivity index (CC50 / IC50) [1]: 2
- IC50 [1, 6]: 36 µM
- IC50 ([1]; S1 Data): 36 µM
- Papp at 5 h, 10 μM [2]: 9.39 ×10⁻⁶ cm/s
- microsomal CLint at 0.5 μM [3, 7]: < 23 µL/min/mg
- IC50 [4]: > 64 µM
- CC50 (MRC-5 cytotoxicity): > 64 µM

Structure (SMILES): CN1CCC(n2c(NC(=O)c3ccnn3C)nc3ccc(C#N)cc32)CC1 [Compound 51, O=C(c1ccnn1C)Nc2nc(ccc(C#N)c3)c3n2C4CCN(C)CC4]
- SI: selectivity index (CC50 / IC50) [1]: 3
- IC50 [1, 6]: 20 µM
- IC50 ([1]; S1 Data): 20.2 µM
- Papp at 5 h, 10 μM [2]: 2.91 ×10⁻⁶ cm/s
- MLM CLint ([3]; S1 Data): 72 µL/min/mg
- IC50 [4]: 50.8 µM
- CC50 (MRC-5 cytotoxicity): > 64 µM
